For one assay, the system named is SK-OV-3. Kind of assay: Antiproliferative activity against human SK-OV-3 cells incubated for 72 hrs and measured by MTT assay. It is filed as functional. Background: Tetrazolium dyes change colour on reduction, which living cells bring about.
The subject of assay [1] is HCT-116. Kind of assay: Antiproliferative activity against human HCT-116 cells incubated for 72 hrs and measured by MTT assay. The assay is classed as functional.
Assay [2] concerns Jurkat. Description: Antiproliferative activity against human Jurkat cells incubated for 72 hrs and measured by MTT assay. The assay is classed as functional.
Another assay relates to WM793. Description: Antiproliferative activity against human WM793 cells incubated for 72 hrs and measured by MTT assay. The assay is classed as functional.
The next assay has as its system HEK293. Kind of assay: Antiproliferative activity against human HEK293 cells incubated for 72 hrs and measured by MTT assay. The assay is classed as functional.
For the next assay, the system named is BALB/3T3. Description: Antiproliferative activity against mouse BALB/3T3 cells incubated for 72 hrs and measured by MTT assay. The assay is classed as functional.
A further assay deals with THP-1. Description: Antiproliferative activity against human THP-1 cells incubated for 72 hrs and measured by MTT assay. The assay is classed as functional.
The next assay concerns MCF7. Kind of assay: Antiproliferative activity against human MCF7 cells incubated for 72 hrs and measured by MTT assay. The assay is classed as functional.
Assay [3] concerns HCT-116. Kind of assay: Antiproliferative activity against p53-deficient human HCT-116 cells incubated for 72 hrs and measured by MTT assay. It is filed as functional.
For another assay, the system named is HeLa. Description: Antiproliferative activity against human HeLa cells incubated for 72 hrs and measured by MTT assay. It is filed as functional.
A further assay deals with HaCaT. Kind of assay: Antiproliferative activity against human HaCaT cells incubated for 72 hrs and measured by MTT assay. It is filed as functional.
For another assay, the system named is K562. Kind of assay: Antiproliferative activity against human K562 cells incubated for 72 hrs and measured by MTT assay. The assay is classed as functional.
Another assay deals with KB 3-1. Kind of assay: Antiproliferative activity against human KB 3-1 cells incubated for 72 hrs and measured by MTT assay. The assay is classed as functional.
A further assay concerns MDA-MB-231. Description: Antiproliferative activity against human MDA-MB-231 cells incubated for 72 hrs and measured by MTT assay. It is filed as functional.
A further assay relates to A549. Description: Antiproliferative activity against human A549 cells incubated for 72 hrs and measured by MTT assay. It is filed as functional.
The target in assay [4] is Heat shock protein HSP 90-alpha (Homo sapiens, UniProt P07900). Kind of assay: Inhibition of Hsp90alpha (unknown origin).
Assay [5] relates to DNA. Description: Binding affinity to DNA (unknown origin) assessed as DNA intercalation at 1 uM by measuring amount of methyl green dye replaced from DNA-methyl green complex. The assay is classed as nucleic-acid assay. The settings on record: Homo sapiens.
The test system of assay [6] is Jurkat. Description: Induction of DNA damage in human Jurkat cells assessed as tail DNA at 0.5 uM measured after 24 hrs by comet assay. The assay is classed as functional.
In assay [7] the test system is Jurkat. Description: Induction of apoptosis in human Jurkat cells assessed as condensed chromatin at 0.5 uM measured after 24 hrs by Hoechst 33342/propidium iodide staining based fluorescence microscopic analysis. It is filed as functional, cell-based.
For assay [8], the system named is Jurkat. Kind of assay: Induction of apoptosis in human Jurkat cells assessed as decrease in mitochondrial membrane potential at 0.5 uM measured after 24 hrs by Rhodamine 123 fluorescence based assay. It is filed as functional, cell-based.
Assay [9] concerns DNA. Kind of assay: Binding affinity to DNA (unknown origin) assessed as DNA intercalation at 10 uM by measuring amount of methyl green dye replaced from DNA-methyl green complex. The assay is classed as nucleic-acid assay. The settings on record: Homo sapiens.
The subject of assay [10] is Jurkat. Kind of assay: Induction of apoptosis in human Jurkat cells assessed as fragmented DNA and nuclei at 0.5 uM measured after 24 hrs by Hoechst 33342/propidium iodide staining based fluorescence microscopic analysis. The assay is classed as functional, cell-based.
Assay [11] concerns Jurkat. Description: Induction of DNA damage in human Jurkat cells assessed as DNA fragmentation at 0.5 uM measured by Diphenylamine assay. The assay is classed as functional.
Assay [12] concerns Jurkat. Kind of assay: Induction of apoptosis in human Jurkat cells assessed as cell debris at 0.5 uM measured after 24 hrs by Hoechst 33342/propidium iodide staining based fluorescence microscopic analysis. The assay is classed as functional.
Assay [13] deals with Jurkat. Description: Induction of DNA damage in human Jurkat cells assessed as olive tail moment at 0.5 uM measured after 24 hrs by comet assay. The assay is classed as functional.
In assay [14] the test system is Jurkat. Description: Induction of apoptosis in human Jurkat cells assessed as appearance of apoptotic bodies at 0.5 uM measured after 24 hrs by Hoechst 33342/propidium iodide staining based fluorescence microscopic analysis. The assay is classed as functional, cell-based.
The species named for a further assay is Homo sapiens. Description: Inhibition of electrophoretic mobility of Plasmid DNA pEGFPc-1 (unknown origin) incubated for 6 hrs at 1 uM and measured by agarose gel electrophoresis method.
In assay [15] the test system is Jurkat. Description: Induction of apoptosis in human Jurkat cells assessed as cellular membrane blebbing at 0.5 uM measured after 24 hrs by Hoechst 33342/propidium iodide staining based fluorescence microscopic analysis. The assay is classed as functional, cell-based.
The subject of the next assay is SNB-75. Kind of assay: Antiproliferative activity against human SNB-75 cells. The assay is classed as functional.
The next assay deals with HOP-92. Kind of assay: Antiproliferative activity against human HOP-92 cells. It is filed as functional.
In assay [16] the test system is DNA. Kind of assay: Binding affinity to DNA (unknown origin) assessed as DNA intercalation at 10 ug/ml by measuring amount of methyl green dye replaced from DNA-methyl green complex. The settings on record: Homo sapiens; dose 10.0 µg/ml. It is filed as nucleic-acid assay.
For assay [17], the system named is DNA. Description: Binding affinity to DNA (unknown origin) assessed as DNA intercalation at 1 ug/ml by measuring amount of methyl green dye replaced from DNA-methyl green complex. Particulars: Homo sapiens; dose 1.0 µg/ml. The assay is classed as nucleic-acid assay.
The target in assay [18] is DNA topoisomerase 2-alpha (Homo sapiens, UniProt P11388). Kind of assay: Inhibition of DNA topoisomerase 2 alpha (unknown origin) measured by topoisomerase-mediated DNA relaxation assay.
Chain of DNA topoisomerase 2-alpha (P11388 whole entry): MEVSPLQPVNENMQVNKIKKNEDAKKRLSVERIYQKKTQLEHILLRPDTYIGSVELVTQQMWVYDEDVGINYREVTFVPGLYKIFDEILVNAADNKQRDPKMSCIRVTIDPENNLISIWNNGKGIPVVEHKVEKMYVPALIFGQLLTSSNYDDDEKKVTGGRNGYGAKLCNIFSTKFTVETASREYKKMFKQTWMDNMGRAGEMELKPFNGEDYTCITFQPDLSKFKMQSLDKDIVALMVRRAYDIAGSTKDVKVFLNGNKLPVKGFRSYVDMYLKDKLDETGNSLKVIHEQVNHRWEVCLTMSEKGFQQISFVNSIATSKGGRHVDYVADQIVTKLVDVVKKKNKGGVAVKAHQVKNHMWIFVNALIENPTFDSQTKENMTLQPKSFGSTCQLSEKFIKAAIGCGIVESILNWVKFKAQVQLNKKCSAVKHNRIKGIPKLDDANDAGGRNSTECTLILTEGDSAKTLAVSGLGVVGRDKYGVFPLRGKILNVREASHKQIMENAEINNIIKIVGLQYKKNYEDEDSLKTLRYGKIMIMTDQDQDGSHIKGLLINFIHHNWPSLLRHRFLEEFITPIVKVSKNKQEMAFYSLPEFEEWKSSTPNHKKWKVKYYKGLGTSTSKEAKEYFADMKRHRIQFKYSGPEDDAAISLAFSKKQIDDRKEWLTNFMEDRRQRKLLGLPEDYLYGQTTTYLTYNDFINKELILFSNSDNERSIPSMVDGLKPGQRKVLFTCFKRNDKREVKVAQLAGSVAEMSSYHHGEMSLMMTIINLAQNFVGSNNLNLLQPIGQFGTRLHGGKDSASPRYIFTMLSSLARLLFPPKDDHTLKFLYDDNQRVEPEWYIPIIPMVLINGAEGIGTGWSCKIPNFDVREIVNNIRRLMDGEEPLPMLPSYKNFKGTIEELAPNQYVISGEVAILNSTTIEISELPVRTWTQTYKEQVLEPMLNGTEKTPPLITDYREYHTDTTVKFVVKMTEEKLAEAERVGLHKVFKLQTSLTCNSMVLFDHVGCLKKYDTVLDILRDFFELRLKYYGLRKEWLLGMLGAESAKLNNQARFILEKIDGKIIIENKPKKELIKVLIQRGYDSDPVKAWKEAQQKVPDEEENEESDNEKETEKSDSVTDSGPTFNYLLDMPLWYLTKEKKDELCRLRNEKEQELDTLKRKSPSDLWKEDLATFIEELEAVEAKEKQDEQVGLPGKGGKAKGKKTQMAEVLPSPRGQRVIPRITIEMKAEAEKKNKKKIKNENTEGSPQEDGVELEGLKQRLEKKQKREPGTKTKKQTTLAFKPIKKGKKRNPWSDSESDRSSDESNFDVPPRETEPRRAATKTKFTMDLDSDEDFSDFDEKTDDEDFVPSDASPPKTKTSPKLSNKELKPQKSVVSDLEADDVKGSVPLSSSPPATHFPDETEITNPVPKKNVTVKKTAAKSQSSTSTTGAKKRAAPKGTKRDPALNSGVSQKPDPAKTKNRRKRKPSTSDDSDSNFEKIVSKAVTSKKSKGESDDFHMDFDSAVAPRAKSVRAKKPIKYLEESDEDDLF

The structures appear in SMILES notation. The source made the active and inactive calls. No cut-off for these calls is given here. Some results are limits rather than exact numbers.

One may read the GI50 as the concentration at which growth is held to half of that of the control. A high value points to lower sensitivity of the cells. As to `COCc1c(C(=O)Nc2ccc(SC#N)cc2)nnn1-c1ccc(C)cc1`, the GI50 with SK-OV-3 is 46.4 µM; with HCT-116 [1], 81.2 µM; in the assay on Jurkat [2], 4.46 µM; in the assay with WM793, 93.3 µM; with HEK293, more than 100 µM; in the assay with BALB/3T3, 75.7 µM. Further, the GI50 in the assay with THP-1 was more than 100 µM; with MCF7 it was more than 100 µM; with HCT-116 [3], 21.7 µM; with HeLa, more than 100 µM; in the assay on HaCaT, more than 100 µM; with K562, 42.5 µM. In addition, the GI50 with KB 3-1 is 53.6 µM; in the assay with MDA-MB-231 it was more than 100 µM; in the assay with A549 it was more than 100 µM.

`Cc1ccc(Cl)c(-n2nnc(C(=O)Nc3ccc(SC#N)cc3)c2C)c1`: the GI50 was 9.6 µM in the assay on SK-OV-3; more than 100 µM with HCT-116 [1]; 66.3 µM in the assay with Jurkat [2]; more than 100 µM in the assay with WM793; more than 100 µM in the assay with HEK293; 100 µM in the assay with BALB/3T3. Moreover, the GI50 was more than 100 µM with THP-1; more than 100 µM in the assay with MCF7; more than 100 µM in the assay with HCT-116 [3]; more than 100 µM with HeLa; more than 100 µM with HaCaT; 6.6 µM in the assay with K562. Further, the GI50 is 68 µM in the assay with KB 3-1, more than 100 µM in the assay with MDA-MB-231 and more than 100 µM with A549.

One may read the IC50 as the concentration needed to halve the response being measured. A higher IC50 goes with lower potency. With `CCNC(=O)c1nnn(-c2cc(C(C)C)c(O)cc2O)c1-c1ccc(CN2CCOCC2)cc1`, in [4], the IC50 is less than 0.005 µM.

`COc1cccc2c1C(=O)c1c(O)c3c(c(O)c1C2=O)C[C@@](O)(C(=O)CO)C[C@@H]3O[C@H]1C[C@H](N)[C@H](O)[C@H](C)O1` [DOXORUBICIN]: the GI50 was 8.8 µM in the assay with SK-OV-3; 0.76 µM in the assay with HCT-116 [1]; 0.65 µM with Jurkat [2]; 0.9 µM in the assay on WM793; 0.8 µM in the assay with HEK293; 0.62 µM with BALB/3T3. The GI50 in the assay on THP-1 worked out at 23.1 µM; in the assay with MCF7, 0.82 µM; in the assay with HCT-116 [3], 0.5 µM; with HeLa it was 0.76 µM; in the assay with HaCaT, 0.9 µM; in the assay with K562 it was 0.7 µM. Also, the GI50 was found to be 0.74 µM in the assay with KB 3-1, 0.76 µM in the assay on MDA-MB-231 and 1.1 µM in the assay on A549. Besides, the Activity in the assay with DNA [5] came out at 49.1%; with Jurkat [6] it was 20.3%; with DNA [9], 54.2%; with Jurkat [11], 64%; in the assay with Jurkat [13], 5.4. In addition, the outcome in the assay with Jurkat [7], in the assay with Jurkat [8], with Jurkat [10], in the assay with Jurkat [12], in the assay with Jurkat [14] and with Jurkat [15] was Active. For the same compound, in the assay listed under Homo sapiens, the inhibition result is “Active”.

As for `Cc1ccc(-n2nnc(C(=O)Nc3ccc(SC#N)cc3)c2C)cc1C`, the concentration for 50% growth inhibition (GI50) was more than 100 µM in the assay on SK-OV-3; more than 100 µM in the assay on HCT-116 [1]; 0.68 µM with Jurkat [2]; 72.4 µM with WM793; more than 100 µM with HEK293; 9.8 µM in the assay on BALB/3T3. The GI50 was more than 100 µM in the assay with THP-1; 72 µM with MCF7; more than 100 µM in the assay on HCT-116 [3]; more than 100 µM in the assay on HeLa; more than 100 µM in the assay with HaCaT; 9.2 µM with K562. In addition, the GI50 was 61 µM in the assay with KB 3-1, more than 100 µM in the assay on MDA-MB-231 and more than 100 µM in the assay with A549.

Broadly, the TGI is the concentration giving total growth inhibition. A low value points to more potent growth arrest. With `Cc1ccc(-n2nnc(C(=O)Nc3cc(Cl)ccc3Cl)c2N)cc1`, the GI50 in the assay with SNB-75 and in the assay on HOP-92 was 0.58 µM in each case. For the same compound, the TGI in the assay on SNB-75 and in the assay with HOP-92 was 5.9 µM each time.

Turning to `CC[n+]1c(-c2ccccc2)c2cc(N)ccc2c2ccc(N)cc21`, the Activity was determined as 46.6% in the assay on DNA [16] and 24.7% with DNA [17].

For the compound `CCCc1c(C(=O)Nc2ccc(SC#N)cc2)nnn1-c1ccccc1`, the GI50 is 73.7 µM in the assay with SK-OV-3; 42.3 µM in the assay on HCT-116 [1]; 0.63 µM with Jurkat [2]; 65.7 µM in the assay on WM793; more than 100 µM in the assay on HEK293; 96.9 µM in the assay on BALB/3T3. Besides, the GI50 is more than 100 µM in the assay with THP-1; 52 µM with MCF7; 39.6 µM with HCT-116 [3]; 48.8 µM with HeLa; more than 100 µM in the assay on HaCaT; 1.4 µM in the assay on K562. Besides, the GI50 in the assay with KB 3-1 was 7.8 µM; in the assay with MDA-MB-231 it was more than 100 µM; with A549 it was more than 100 µM.

Take `Cc1ccc(Cl)cc1-n1nnc(C(=O)Nc2ccc(SC#N)cc2)c1C`: the GI50 was 81.5 µM in the assay on SK-OV-3; 39.6 µM with HCT-116 [1]; 0.68 µM with Jurkat [2]; 72.8 µM in the assay with WM793; 91.2 µM with HEK293; 9.9 µM in the assay on BALB/3T3. Further, the GI50 was more than 100 µM in the assay on THP-1; 8.4 µM with MCF7; 8.2 µM with HCT-116 [3]; 91.3 µM in the assay with HeLa; more than 100 µM in the assay on HaCaT; 5.7 µM in the assay with K562. In addition, the GI50 was 7.8 µM in the assay with KB 3-1, 44.6 µM in the assay with MDA-MB-231 and more than 100 µM in the assay with A549.

As to `COc1cc([C@@H]2c3cc4c(cc3[C@@H](NC(=O)c3cn(-c5ccc(Cl)cc5)nn3)[C@H]3COC(=O)[C@H]23)OCO4)cc(OC)c1OC`, in [18], the IC50 was less than 1 µM.

For the compound `COc1cccc(-n2nnc(C(=O)Nc3ccc(SC#N)cc3)c2C)c1`, the GI50 with SK-OV-3 was 64.6 µM; in the assay with HCT-116 [1], more than 100 µM; in the assay with Jurkat [2], more than 100 µM; with WM793 it was more than 100 µM; in the assay on HEK293, more than 100 µM; with BALB/3T3, more than 100 µM. The GI50 with THP-1 was more than 100 µM; in the assay with MCF7, more than 100 µM; in the assay on HCT-116 [3] it was 39.8 µM; in the assay with HeLa it was more than 100 µM; in the assay with HaCaT, more than 100 µM; in the assay on K562 it was 84.5 µM. Also, the GI50 in the assay on KB 3-1, in the assay with MDA-MB-231 and in the assay on A549 was more than 100 µM throughout.

Values taken from ChEMBL document CHEMBL5108031, “Novel N-(4-thiocyanatophenyl)-1H-1,2,3-triazole-4-carboxamides exhibit selective cytotoxic activity at nanomolar doses towards human leukemic T-cells” (Eur J Med Chem, 2022).
